Source: patent US20090068290A1, “BIFEPRUNOX DOSES FOR TREATING SCHIZOPHRENIA” (priority 2006, published 2009)

Columns and labels:
Format in all cases: in vivo, human
[1] = system: patients with chronic schizophrenia; assay: Adverse events incl. EPS TEAEs, Clinical Study Four
Procedure: OTHER SECONDARY OBJECTIVE: To evaluate the long-term safety and tolerability of bifeprunox versus placebo.
(§1) METHODOLOGY: This study was a multinational, multicenter, randomized, double-blind, parallel-group, placebo-controlled, fixed-dose study. The study consisted of a 3- to 6-day antipsychotic-free run-in period, after which patients were randomised to 6 months of double-blind treatment with fixed doses of bifeprunox (20 mg/day (BX20) or 30 mg/day (BX30)) or placebo (PBO). Patients allocated to the BX groups were up-titrated from 0.25 mg/day over 7 days (BX20) or 8 days (BX30), and then continued on these doses for the remainder of the study. […] At predetermined time points, blood samples were obtained for drug concentration analysis of BX and its major metabolites (3′- and 4′-sulfate conjugates of BX), and pharmaco-economic assessments were performed.

[2] = Metabolic syndrome status, Clinical Study Four; conditions: 6 months
Procedure: as §1

[3] = Weight, BMI and waist measurement, Clinical Study Four
Procedure: as §1

[4] = BX20 (bifeprunox 20 mg), Last post-Baseline observation, APTS
[5] = BX20 (bifeprunox 20 mg), Month 3, APTS
[6] = BX20 (bifeprunox 20 mg), Month 6, APTS
[7] = BX20 (bifeprunox 20 mg), Week 6, APTS
[8] = BX20 (bifeprunox 20 mg), visit printed as Baseline, APTS
[9] = BX30 (bifeprunox 30 mg), Last post-Baseline observation, APTS
[10] = BX30 (bifeprunox 30 mg), Month 3, APTS
[11] = BX30 (bifeprunox 30 mg), Month 6, APTS
[12] = BX30 (bifeprunox 30 mg), Week 6, APTS

## O=c1[nH]c2cccc(N3CCN(Cc4cccc(-c5ccccc5)c4)CC3)c2o1 [Bifeprunox, 7-[4-([1,1′-biphenyl]-3-ylmethyl)-1-piperazinyl]-2(3H)-benzoxazolone]
[1]; BX20
  patients with TEAEs related to EPS that led to withdrawal: 4 patients
  weight decreased reported as a TEAE: 8%
[1]; BX20, APTS
  AKATHISIA, %: (6.9) %
  Choreoathetosis, %: (1.9) %
  DYSKINESIA, %: (1.3) %
  Dystonia, %: (0.6) %
  EPS TEAEs: MUSCULOSKELETAL AND CONNECTIVE TISSUE DISORDERS, %: (0.6) %
  EPS TEAEs: NERVOUS SYSTEM DISORDERS, %: (10.1) %
  EXTRAPYRAMIDAL DISORDER, %: (0.6) %
  Muscle rigidity, %: (0.6) %
  Patients with EPS TEAEs, %: (10.1) %
  TREMOR, %: (0.6) %
  proportion of patients with TEAEs related to EPS: 10%
[1]; BX30
  patients with TEAEs related to EPS that led to withdrawal: 9 patients
  weight decreased reported as a TEAE: 8%
  weight increased reported as a TEAE: 1.2%
[1]; BX30, APTS
  AKATHISIA, %: (4.7) %
  Athetosis, %: (0.6) %
  Choreoathetosis, %: (0.6) %
  DYSKINESIA, %: (6.4) %
  EPS TEAEs: MUSCULOSKELETAL AND CONNECTIVE TISSUE DISORDERS, %: (0.6) %
  EPS TEAEs: NERVOUS SYSTEM DISORDERS, %: (14.5) %
  EXTRAPYRAMIDAL DISORDER, %: (2.9) %
  Muscle rigidity, %: (0.6) %
  Patients with EPS TEAEs, %: (14.5) %
  TREMOR, %: (2.9) %
  proportion of patients with TEAEs related to EPS: 15%
[2]; BX either dose (20 or 30 mg/day)
  effect on patients' status of metabolic syndrome: no treatment effect
[2]; bifeprunox 20 or 30 mg/day
  metabolic profile (weight changes, blood lipids, metabolic syndrome): A favorable metabolic profile
[3]; [4]
  BMI, Mean: 24.3
  BMI, Median: 23.7
  Change from Baseline in BMI, Mean: −0.4
  Change from Baseline in BMI, Median: 0.0
  Change from Baseline in Weight, Mean: -1.0 kg
  Change from Baseline in Weight, Median: 0.0 kg
  Waist measurement, Mean: 81.6
  Waist measurement, Median: 79.5
  Weight PCS High (Increase from baseline >= 7%), (%): (2.8) %
  Weight PCS Low (Decrease from baseline >= 7%), (%): (9.1) %
  Weight, Mean: 69.7 kg
  Weight, Median: 68.0 kg
[3]; [5]
  BMI, Mean: 23.9
  BMI, Median: 23.1
  Change from Baseline in BMI, Mean: −0.2
  Change from Baseline in BMI, Median: 0.0
  Change from Baseline in Waist Measurement, Mean: −1.1
  Change from Baseline in Waist Measurement, Median: 0.0
  Change from Baseline in Weight, Mean: -0.6 kg
  Change from Baseline in Weight, Median: 0.0 kg
  Waist measurement, Mean: 79.5
  Waist measurement, Median: 76.5
  Weight PCS High (Increase from baseline >= 7%), (%): (0.0) %
  Weight, Mean: 68.1 kg
  Weight, Median: 66.0 kg
[3]; [6]
  BMI, Mean: 23.9
  BMI, Median: 23.1
  Change from Baseline in BMI, Mean: −0.2
  Change from Baseline in BMI, Median: 0.0
  Change from Baseline in Waist Measurement, Mean: −0.9
  Change from Baseline in Waist Measurement, Median: 0.0
  Change from Baseline in Weight, Mean: -0.6 kg
  Change from Baseline in Weight, Median: 0.0 kg
  Waist measurement, Mean: 79.4
  Waist measurement, Median: 77.7
  Weight PCS High (Increase from baseline >= 7%), (%): (6.8) %
  Weight PCS Low (Decrease from baseline >= 7%), (%): (10.2) %
  Weight, Mean: 68.2 kg
  Weight, Median: 67.0 kg
[3]; [7]
  BMI, Mean: 24.3
  BMI, Median: 23.8
  Change from Baseline in BMI, Mean: −0.2
  Change from Baseline in BMI, Median: 0.0
  Change from Baseline in Waist Measurement, Mean: −1.1
  Change from Baseline in Waist Measurement, Median: 0.0
  Change from Baseline in Weight, Mean: -0.6 kg
  Change from Baseline in Weight, Median: 0.0 kg
  Waist measurement, Mean: 81.6
  Waist measurement, Median: 78.0
  Weight PCS High (Increase from baseline >= 7%), (%): (0.0) %
  Weight PCS Low (Decrease from baseline >= 7%), (%): (4.8) %
  Weight, Mean: 69.7 kg
  Weight, Median: 67.0 kg
[3]; [8]
  Change from Baseline in Waist Measurement, Mean: −0.0
  Change from Baseline in Waist Measurement, Median: 0.0
[3]; [9]
  BMI, Mean: 24.5
  BMI, Median: 23.7
  Change from Baseline in BMI, Mean: −0.4
  Change from Baseline in BMI, Median: 0.0
  Change from Baseline in Waist Measurement, Mean: −0.4
  Change from Baseline in Waist Measurement, Median: 4.4
  Change from Baseline in Weight, Mean: -1.2 kg
  Change from Baseline in Weight, Median: 0.0 kg
  Waist measurement, Mean: 82.6
  Waist measurement, Median: 80.4
  Weight PCS High (Increase from baseline >= 7%), (%): (2.7) %
  Weight PCS Low (Decrease from baseline >= 7%), (%): (9.5) %
  Weight, Mean: 70.9 kg
  Weight, Median: 68.5 kg
[3]; [10]
  BMI, Mean: 24.4
  BMI, Median: 23.4
  Change from Baseline in BMI, Median: −0.1
  Change from Baseline in Waist Measurement, Mean: −0.4
  Change from Baseline in Waist Measurement, Median: 0.0
  Change from Baseline in Weight, Mean: -1.1 kg
  Change from Baseline in Weight, Median: -0.5 kg
  Waist measurement, Mean: 81.6
  Waist measurement, Median: 79.5
  Weight PCS Low (Decrease from baseline >= 7%), (%): (11.4) %
  Weight, Mean: 70.1 kg
  Weight, Median: 68.0 kg
[3]; [11]
  BMI, Mean: 24.4
  BMI, Median: 23.7
  Change from Baseline in BMI, Mean: −0.0
  Change from Baseline in BMI, Median: 0.0
  Change from Baseline in Waist Measurement, Mean: −0.0
  Change from Baseline in Waist Measurement, Median: 0.1
  Change from Baseline in Weight, Mean: -0.1 kg
  Change from Baseline in Weight, Median: 0.0 kg
  Waist measurement, Mean: 81.1
  Waist measurement, Median: 78.0
  Weight PCS High (Increase from baseline >= 7%), (%): (7.3) %
  Weight PCS Low (Decrease from baseline >= 7%), (%): (7.3) %
  Weight, Mean: 71.4 kg
  Weight, Median: 70.0 kg
[3]; [12]
  BMI, Mean: 24.8
  BMI, Median: 23.9
  Change from Baseline in BMI, Mean: −0.3
  Change from Baseline in BMI, Median: 0.0
  Change from Baseline in Waist Measurement, Mean: −0.0
  Change from Baseline in Waist Measurement, Median: 0.0
  Change from Baseline in Weight, Mean: -0.9 kg
  Change from Baseline in Weight, Median: 0.0 kg
  Waist measurement, Mean: 83.9
  Waist measurement, Median: 80.0
  Weight PCS High (Increase from baseline >= 7%), (%): (0.0) %
  Weight PCS Low (Decrease from baseline >= 7%), (%): (4.7) %
  Weight, Mean: 72.2 kg
  Weight, Median: 70.0 kg
